What is called IC50 is the concentration needed to halve the response being measured. A word on the IC90: it is the point of the concentration-response curve where the effect stands at 90%. A low value points to greater potency.

Our source for the IC50 and IC90 values is PubChem BioAssay AID449762 (Southern Research Specialized Biocontainment Screening …, 2010).

Results filed as inconclusive are left out. Some results are limits rather than exact numbers.

The test system of the experiment is M. tuberculosis H37Rv growth inhibition, 7H9 media. Description: M. tuberculosis growth inhibition, HTS (AID 449762).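 For all read-outs here: bacterial growth assessed after seven days of incubation.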 The settings on record: for IC90: measured here: IC90 growth inhibition.

`COc1ccc(-c2cc3ccccc3oc2=O)cc1NC(=O)c1ccc([N+](=O)[O-])o1`: the half-inhibitory concentration (IC50) is 0.37 µM and the IC90 is greater than 100 µM. The matching figures for `CC(C)(O)C#Cc1ccc(C(=O)Nc2ccc3c(c2)OCO3)s1`: 1.63 µM and greater than 100 µM. Regarding `COC(=O)c1[nH]c2cc(OC)ccc2c1NC(=O)CN1CCN(c2cccc(C)c2)C(C)C1` (stereo unspecified), the half-inhibitory concentration (IC50) was 26.6 µM and the IC90 came out at 40.2 µM. The like results for `CCCN(CC1CC1)C(=O)COC(=O)c1ccc2c(c1)C(=O)N(c1ccc(OCC)cc1)C2=O` were, in that order, 35.2 µM and greater than 100 µM. The like results for `Cc1ccc(CNC(=O)c2sc3nc4c(c(C(F)(F)F)c3c2N)CCC4)cc1` were, in that order, 35.7 µM and 50.9 µM.

Turning to `CN(/N=C/c1cc(Br)cc(Br)c1O)c1cccc(C(F)(F)F)n1`, the IC50 is 3.93 µM and the 90% effect concentration (IC90) is 7.43 µM. The like results for `CS/C(Nc1cc(Cl)ccc1Cl)=C(/C#N)C(=O)c1ccco1` were, in that order, 3.6 µM and 40.2 µM.

On to `Cc1cc(C)n2nc(N)c(N=Nc3ccccc3)c2n1`, for which the IC50 is 2.9 µM and the IC90 came to 3.27 µM. On to `Cc1c(OCc2ccccc2)c(=O)ccn1Cc1ccc(Cl)cc1`, for which the half-maximal inhibitory concentration (IC50) is 39.4 µM and the 90% effect concentration (IC90) was 60.1 µM.

For `Cc1nc(N)nc(N)c1CCCc1ccc(Cl)c(Cl)c1`, the IC50 is 78.2 µM and the IC90 is greater than 100 µM. `Cc1ccccc1C1C(C#N)=C2N=C(N)c3c(sc4c3CCCCC4)N2C2=C1C(=O)CC(C)(C)C2` (stereo unspecified) came in with a concentration for an effect of 90% (IC90) greater than 100 µM.

Regarding `CCCCOc1ccc(C(=O)N/N=C/c2ccc(OCCN3CCCCC3)c(OC)c2)cc1`, the half-inhibitory concentration (IC50) was 28.8 µM and the IC90 was determined as 44.6 µM.

For `O=C(COC(=O)c1cccs1)c1ccccc1`, the IC50 is 45 µM and the concentration for an effect of 90% (IC90) was greater than 100 µM. Consider `COc1ccc(-c2cc3c(=O)n(CC(=O)NCCCN4CCC(Cc5ccccc5)CC4)ncn3n2)cc1`, for which the half-inhibitory concentration (IC50) is 23.7 µM and the IC90 was 26.2 µM.

With `CCOC(=O)N1CCN(Cc2cc(Cl)c3cccnc3c2O)CC1`, the IC50 is 11 µM and the concentration for an effect of 90% (IC90) amounted to 21 µM.

Regarding `CCCC1CC(C)(c2csc(Nc3ccc(OCC)cc3)n2)OC1=O` (stereo unspecified), the IC50 is 33.5 µM and the IC90 is 46.5 µM. The matching figures for `CC(C)C[C@H](NC(=O)c1nc[nH]c1C(=O)NC1CCN(C(=O)OC(C)(C)C)CC1)C(=O)OCc1ccccc1`: 22.4 µM and 25.4 µM. As for `N#C/C(=C\c1ccc(-c2ccc(Br)cc2)o1)C(=O)NCCc1c[nH]c2ccccc12`, the half-inhibitory concentration (IC50) is 96.1 µM and the IC90 is greater than 100 µM. As to `Cc1nc(-c2ccccc2)sc1C(=O)/C=C/c1ccccc1`, the half-inhibitory concentration (IC50) was 10.3 µM and the IC90 came out at 14.5 µM.

Turning to `C(=C\c1nccc2c1[nH]c1ccccc12)/c1ccccc1`, the IC50 is 28.5 µM and the IC90 amounted to 48.2 µM. The matching figures for `O=C(c1cnn2c(C(F)F)cc(-c3ccccc3)nc12)N1CCc2ccccc2C1`: 40.4 µM and 49 µM. The like results for `C#CCOCCOCCOCCNc1nc(N2CCN(C(=O)CCCCCCCCCCNC(=O)[C@H](CCCCN)n3cc(CCCC(=O)O)nn3)CC2)nc(N2CCN(C(=O)CCCCCCCCCCNC(=O)[C@H](CCCN=C(N)N)n3cc(C[C@@H](C)CC)nn3)CC2)n1` were, in that order, 4.78 µM and 5.97 µM. The matching figures for `Cc1ccc(N(CCC#N)C(=O)CCl)cc1C`: 0.98 µM and 4.41 µM.

Take `COC(=O)c1c(NC(=O)C(=O)N2CCCC2)sc2c1CC(C)(C)OC2`: the IC50 was 9.46 µM and the IC90 came out at 27.7 µM. As for `Cc1cc(C)cc(NC(=O)CCc2ccc(C)o2)c1`, the half-inhibitory concentration (IC50) was 43 µM and the IC90 was greater than 100 µM. The matching figures for `Nc1[nH]n2c(=O)cc(-c3ccccc3)nc2c1N=Nc1ccc2c(c1)OCO2`: 23.4 µM and 26.6 µM. `COc1ccc(-c2nnc(SCC(=O)N3CCc4ccccc4C3)o2)cc1`: the half-maximal inhibitory concentration (IC50) is 17.6 µM and the IC90 is 29.2 µM. On to `NN/C(=C\[N+](=O)[O-])Nc1ccc(Cl)cc1`, for which the IC50 was 45.9 µM and the 90% effect concentration (IC90) is greater than 100 µM.

Consider `Cc1cc(C)cc(NC(=O)c2ccc(Cn3nc(C)c(Cl)c3C)o2)c1`, for which the IC50 is 30.8 µM and the concentration for an effect of 90% (IC90) is 41.9 µM.

`COc1ccccc1NC(=O)Nc1nc(CC(=O)N2CCN(c3ccccc3F)CC2)cs1`: the IC50 was 41.7 µM and the concentration for an effect of 90% (IC90) is greater than 100 µM. The matching figures for `CCCCCC(O)c1cccc(OCc2ccc3ccccc3n2)c1` (stereo unspecified): 44.7 µM and 50.5 µM. The matching figures for `CCOC(=O)Cn1c(C)c(Br)c(=O)c2cccc(C)c21`: 7.53 µM and 22.7 µM. The like results for `CCCCCNc1nc(N2CCCC2)c2c(c1C#N)CCN(C)C2` were, in that order, 83.7 µM and greater than 100 µM. As for `Cc1c(Cl)c([N+](=O)[O-])nn1Cc1ccc(C(=O)N/N=C\c2cccc(Br)c2)o1`, the 50% inhibitory concentration (IC50) is 66.7 µM and the IC90 was greater than 100 µM. Turning to `Cc1nn(-c2ccccc2)nc1C(=O)c1c(C)[nH]n(-c2ccccc2)c1=O`, the IC50 is 9.7 µM and the concentration for an effect of 90% (IC90) was found to be 18.7 µM.

For `CCCc1ccc2oc(C(=O)N(C)Cc3nccs3)c(C)c2c1`, the IC50 is 32.1 µM and the IC90 was determined as 60.3 µM. Consider `C[Se]C[C@@H](N)C(=O)O`, for which the IC50 is 51 µM and the 90% effect concentration (IC90) was 69.6 µM.

As to `CCOC(=O)CSc1nnc(-c2c[nH]c3ccccc23)o1`, the half-inhibitory concentration (IC50) was 0.59 µM and the concentration for an effect of 90% (IC90) is greater than 100 µM.

Turning to `COc1ccc(-n2cc(CNCCc3cscn3)c(-c3ccccc3Cl)n2)cc1`, the IC50 was 25.6 µM and the concentration for an effect of 90% (IC90) came to 29.7 µM. On to `CC(C)(C)c1ccc(Cn2nnc3c(=O)[nH]c(C4CCCN(C(=O)Cc5cccs5)C4)nc32)cc1` (stereo unspecified), for which the IC50 was 35.2 µM and the IC90 was found to be 47.8 µM.

As to `COc1cccc2sc3ccc(C#CC4(N)CCCCC4)cc3c(=O)c12`, the IC50 was 61.6 µM and the IC90 was found to be 82.2 µM. Regarding `O=C(CCl)Nc1cn(-c2ccccc2)nc1-c1ccccc1`, the concentration for half-maximal inhibition (IC50) is less than 0.2 µM and the IC90 was found to be 1.15 µM. The matching figures for `Cc1ccc(OCCN2CCN(c3ncnc4sc(C)c(C)c34)CC2)cc1`: 93.7 µM and greater than 100 µM. The matching figures for `O=C(CCl)Nc1nccs1`: 2.01 µM and 4.71 µM. As to `Oc1ccccc1N=Cc1ccc[nH]1`, the IC50 is 3.83 µM and the IC90 came out at 7.96 µM. The like results for `COC(=O)c1ccc2c(=O)[nH]c(CSc3nc(C)cs3)nc2c1` were, in that order, 69 µM and greater than 100 µM. With `Cc1ccccc1N1CCN(C(=O)c2ccc(Oc3ccc(C(F)(F)F)cn3)cc2)CC1`, the half-inhibitory concentration (IC50) is 24.4 µM and the IC90 came to 60.5 µM. For `CC12CCC(=O)N1C(C(=O)Nc1ccc(SC(F)F)cc1)CS2` (stereo unspecified), the IC50 was 30.2 µM and the IC90 is 63.1 µM.

In the case of `CCCCCCCCNC(C)C(O)c1ccc(SC(C)C)cc1` (stereo unspecified), the 50% inhibitory concentration (IC50) is 22.5 µM and the concentration for an effect of 90% (IC90) was 31.8 µM.

Take `c1ccc2c(c1)CCN(c1nc(CN3CCOCC3)nc3sc4c(c13)CCCC4)C2`: the IC50 is 13.8 µM and the 90% effect concentration (IC90) was 33.6 µM. In the case of `Cn1cnc([N+](=O)[O-])c1Sc1ccc(Br)cc1`, the IC50 was 8.81 µM and the IC90 came out at 16.9 µM.
